Article PMC11864979, “First-in-class ultralong-target-residence-time p38α inhibitors as a mitosis-targeted therapy for colorectal cancer” (Nature Cancer, 2025)
Like-named read-outs stand apart in the source and are kept apart here.

Columns and labels:
Assay in all cases: selectivity profiling in a panel of 340 wild-type kinases (Reaction Biology Europe)
Format in all cases: binding
340 wild-type kinases [1] = molecular target: T1, 340 wild-type kinases (Homo sapiens, UniProt P19784)
T1 construct: purchased Reaction Biology Europe

340 wild-type kinases [2] = molecular target: T2, 340 wild-type kinases (Homo sapiens, UniProt P42685)
T2 construct: purchased Reaction Biology Europe

340 wild-type kinases [3] = molecular target: T3, 340 wild-type kinases (Homo sapiens, UniProt Q06187)
T3 construct: purchased Reaction Biology Europe

340 wild-type kinases [4] = molecular target: T4, 340 wild-type kinases (Homo sapiens, UniProt O60566)
T4 construct: purchased Reaction Biology Europe

340 wild-type kinases [5] = molecular target: T5, 340 wild-type kinases (Homo sapiens, UniProt Q8IYT8)
T5 construct: purchased Reaction Biology Europe
T5 sequence (Q8IYT8 1-1036): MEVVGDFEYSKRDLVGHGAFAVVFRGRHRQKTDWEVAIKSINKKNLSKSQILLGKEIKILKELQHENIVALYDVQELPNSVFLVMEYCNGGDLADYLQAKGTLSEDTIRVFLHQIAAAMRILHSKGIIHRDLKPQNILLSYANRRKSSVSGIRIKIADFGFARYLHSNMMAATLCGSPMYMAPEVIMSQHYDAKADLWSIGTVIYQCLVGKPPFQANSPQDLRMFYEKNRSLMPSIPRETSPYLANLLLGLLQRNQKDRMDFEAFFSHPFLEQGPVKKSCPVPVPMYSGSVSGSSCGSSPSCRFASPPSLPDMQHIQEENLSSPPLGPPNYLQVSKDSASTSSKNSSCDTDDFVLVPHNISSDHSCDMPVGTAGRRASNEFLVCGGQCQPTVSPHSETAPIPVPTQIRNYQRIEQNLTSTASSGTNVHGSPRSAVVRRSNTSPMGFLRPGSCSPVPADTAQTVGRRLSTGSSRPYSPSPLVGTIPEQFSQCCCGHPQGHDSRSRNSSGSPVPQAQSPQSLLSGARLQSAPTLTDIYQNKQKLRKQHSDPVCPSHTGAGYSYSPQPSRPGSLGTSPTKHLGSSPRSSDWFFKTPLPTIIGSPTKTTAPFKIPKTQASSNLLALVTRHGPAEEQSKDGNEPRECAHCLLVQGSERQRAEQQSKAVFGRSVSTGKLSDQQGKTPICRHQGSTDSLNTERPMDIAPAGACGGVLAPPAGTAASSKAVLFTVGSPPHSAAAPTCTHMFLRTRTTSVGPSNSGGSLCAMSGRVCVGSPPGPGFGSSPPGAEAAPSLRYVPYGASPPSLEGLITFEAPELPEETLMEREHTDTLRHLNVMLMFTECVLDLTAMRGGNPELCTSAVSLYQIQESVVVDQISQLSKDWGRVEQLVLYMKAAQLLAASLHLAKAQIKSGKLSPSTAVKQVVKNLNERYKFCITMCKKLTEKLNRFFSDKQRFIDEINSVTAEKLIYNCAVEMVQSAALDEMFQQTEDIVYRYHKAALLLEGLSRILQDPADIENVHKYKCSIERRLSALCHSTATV

340 wild-type kinases [6] = molecular target: T6, 340 wild-type kinases (Homo sapiens, UniProt P80192)
T6 construct: purchased Reaction Biology Europe

340 wild-type kinases [7] = molecular target: T7, 340 wild-type kinases (Homo sapiens, UniProt Q16539)
T7 construct: purchased Reaction Biology Europe

340 wild-type kinases [8] = molecular target: T8, 340 wild-type kinases (Homo sapiens, UniProt Q86Y07)
T8 construct: purchased Reaction Biology Europe

340 wild-type kinases [9] = molecular target: T9, 340 wild-type kinases (Homo sapiens, UniProt P27448)
T9 construct: purchased Reaction Biology Europe

340 wild-type kinases [10] = molecular target: T10, 340 wild-type kinases (Homo sapiens, UniProt P51957)
T10 construct: purchased Reaction Biology Europe

340 wild-type kinases [11] = molecular target: T11, 340 wild-type kinases (Homo sapiens, UniProt O43318)
T11 construct: purchased Reaction Biology Europe
T11 sequence (O43318 1-606): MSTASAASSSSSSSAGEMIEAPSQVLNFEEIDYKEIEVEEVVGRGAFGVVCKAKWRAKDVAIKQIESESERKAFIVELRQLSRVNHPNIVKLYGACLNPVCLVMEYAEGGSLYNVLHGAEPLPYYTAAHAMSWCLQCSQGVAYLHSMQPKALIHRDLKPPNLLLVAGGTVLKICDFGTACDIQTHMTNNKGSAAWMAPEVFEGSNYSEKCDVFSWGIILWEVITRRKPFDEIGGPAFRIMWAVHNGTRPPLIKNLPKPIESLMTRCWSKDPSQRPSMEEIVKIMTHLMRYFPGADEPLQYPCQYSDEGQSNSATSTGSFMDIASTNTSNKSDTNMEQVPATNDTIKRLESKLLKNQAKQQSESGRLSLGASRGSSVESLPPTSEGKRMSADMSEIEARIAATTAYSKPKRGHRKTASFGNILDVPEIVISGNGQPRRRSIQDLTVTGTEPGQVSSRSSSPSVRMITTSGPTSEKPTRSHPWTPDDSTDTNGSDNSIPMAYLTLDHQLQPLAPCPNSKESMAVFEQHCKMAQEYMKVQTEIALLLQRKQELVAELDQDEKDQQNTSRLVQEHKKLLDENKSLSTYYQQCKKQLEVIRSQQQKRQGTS

T6 sequence (P80192 whole entry): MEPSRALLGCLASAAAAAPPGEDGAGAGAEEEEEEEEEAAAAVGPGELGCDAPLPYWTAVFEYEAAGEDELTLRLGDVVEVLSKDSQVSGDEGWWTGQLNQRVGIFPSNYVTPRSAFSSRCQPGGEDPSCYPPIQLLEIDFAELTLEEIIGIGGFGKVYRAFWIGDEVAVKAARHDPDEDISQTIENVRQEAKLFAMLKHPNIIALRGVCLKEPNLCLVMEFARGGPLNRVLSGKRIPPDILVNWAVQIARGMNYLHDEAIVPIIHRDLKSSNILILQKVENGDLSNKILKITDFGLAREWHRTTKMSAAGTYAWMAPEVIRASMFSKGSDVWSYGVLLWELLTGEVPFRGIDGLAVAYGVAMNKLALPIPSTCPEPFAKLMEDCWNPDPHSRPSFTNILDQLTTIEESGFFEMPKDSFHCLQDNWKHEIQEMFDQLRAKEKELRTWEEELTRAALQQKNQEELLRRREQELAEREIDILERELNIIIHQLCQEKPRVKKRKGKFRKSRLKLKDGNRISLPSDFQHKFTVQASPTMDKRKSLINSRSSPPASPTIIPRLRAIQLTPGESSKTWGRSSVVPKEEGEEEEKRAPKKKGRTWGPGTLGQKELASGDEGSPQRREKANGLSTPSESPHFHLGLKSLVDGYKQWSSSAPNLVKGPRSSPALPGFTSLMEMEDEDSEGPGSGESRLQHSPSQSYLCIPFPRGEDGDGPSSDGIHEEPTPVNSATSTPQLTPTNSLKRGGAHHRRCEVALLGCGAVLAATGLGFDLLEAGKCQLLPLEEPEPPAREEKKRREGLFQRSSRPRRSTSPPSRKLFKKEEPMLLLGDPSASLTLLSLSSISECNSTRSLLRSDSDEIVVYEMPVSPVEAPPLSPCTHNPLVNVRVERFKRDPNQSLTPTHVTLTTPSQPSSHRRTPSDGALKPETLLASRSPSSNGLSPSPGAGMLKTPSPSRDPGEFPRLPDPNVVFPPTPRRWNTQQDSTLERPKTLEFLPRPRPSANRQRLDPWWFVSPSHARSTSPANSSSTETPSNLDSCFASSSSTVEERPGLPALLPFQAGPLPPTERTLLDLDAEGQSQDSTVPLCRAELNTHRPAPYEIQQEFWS
T7 sequence (Q16539 whole entry): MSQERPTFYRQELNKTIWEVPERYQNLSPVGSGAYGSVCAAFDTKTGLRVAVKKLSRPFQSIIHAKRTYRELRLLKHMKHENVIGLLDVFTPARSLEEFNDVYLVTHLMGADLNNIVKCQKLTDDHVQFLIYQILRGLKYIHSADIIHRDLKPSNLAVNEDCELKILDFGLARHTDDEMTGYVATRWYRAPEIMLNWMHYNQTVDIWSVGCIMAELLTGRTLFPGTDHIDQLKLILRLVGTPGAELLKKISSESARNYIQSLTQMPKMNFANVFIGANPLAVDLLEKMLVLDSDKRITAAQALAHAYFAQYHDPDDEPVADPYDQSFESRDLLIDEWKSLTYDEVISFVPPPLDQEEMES
T9 sequence (P27448 whole entry): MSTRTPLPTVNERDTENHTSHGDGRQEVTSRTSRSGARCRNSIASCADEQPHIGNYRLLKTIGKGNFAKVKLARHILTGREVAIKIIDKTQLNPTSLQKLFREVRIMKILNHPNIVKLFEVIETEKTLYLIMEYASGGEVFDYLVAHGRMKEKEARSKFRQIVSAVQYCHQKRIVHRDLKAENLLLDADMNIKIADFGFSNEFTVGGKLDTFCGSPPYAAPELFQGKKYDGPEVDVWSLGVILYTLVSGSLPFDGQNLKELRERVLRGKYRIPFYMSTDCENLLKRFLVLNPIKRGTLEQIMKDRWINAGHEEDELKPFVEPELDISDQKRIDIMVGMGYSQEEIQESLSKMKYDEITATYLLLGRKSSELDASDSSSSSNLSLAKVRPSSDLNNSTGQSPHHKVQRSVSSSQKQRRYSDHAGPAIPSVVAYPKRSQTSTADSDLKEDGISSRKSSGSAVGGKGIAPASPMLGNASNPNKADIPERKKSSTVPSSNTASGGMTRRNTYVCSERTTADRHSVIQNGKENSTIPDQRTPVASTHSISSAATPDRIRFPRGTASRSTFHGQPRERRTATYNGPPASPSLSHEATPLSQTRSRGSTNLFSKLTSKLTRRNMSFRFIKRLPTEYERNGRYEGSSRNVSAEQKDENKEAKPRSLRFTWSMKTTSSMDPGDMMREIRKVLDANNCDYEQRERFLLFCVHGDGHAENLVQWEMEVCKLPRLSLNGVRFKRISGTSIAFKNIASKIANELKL
T3 sequence (Q06187 whole entry): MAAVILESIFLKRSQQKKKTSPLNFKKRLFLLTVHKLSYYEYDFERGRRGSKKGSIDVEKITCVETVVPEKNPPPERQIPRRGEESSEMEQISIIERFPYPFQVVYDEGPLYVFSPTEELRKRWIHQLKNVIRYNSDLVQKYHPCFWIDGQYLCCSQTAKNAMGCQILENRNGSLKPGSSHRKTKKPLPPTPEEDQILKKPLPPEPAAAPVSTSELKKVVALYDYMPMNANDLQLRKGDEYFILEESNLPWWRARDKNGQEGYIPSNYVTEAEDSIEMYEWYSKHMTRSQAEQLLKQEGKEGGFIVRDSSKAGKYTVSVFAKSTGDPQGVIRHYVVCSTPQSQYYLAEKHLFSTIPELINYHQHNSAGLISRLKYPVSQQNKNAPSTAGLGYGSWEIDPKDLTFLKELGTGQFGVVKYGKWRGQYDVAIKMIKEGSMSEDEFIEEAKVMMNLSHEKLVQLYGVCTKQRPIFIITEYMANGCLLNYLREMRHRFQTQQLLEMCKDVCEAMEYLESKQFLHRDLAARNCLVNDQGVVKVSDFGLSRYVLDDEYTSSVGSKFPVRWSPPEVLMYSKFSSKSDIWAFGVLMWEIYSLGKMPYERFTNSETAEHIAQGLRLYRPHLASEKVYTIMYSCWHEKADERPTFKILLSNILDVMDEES
T4 sequence (O60566 whole entry): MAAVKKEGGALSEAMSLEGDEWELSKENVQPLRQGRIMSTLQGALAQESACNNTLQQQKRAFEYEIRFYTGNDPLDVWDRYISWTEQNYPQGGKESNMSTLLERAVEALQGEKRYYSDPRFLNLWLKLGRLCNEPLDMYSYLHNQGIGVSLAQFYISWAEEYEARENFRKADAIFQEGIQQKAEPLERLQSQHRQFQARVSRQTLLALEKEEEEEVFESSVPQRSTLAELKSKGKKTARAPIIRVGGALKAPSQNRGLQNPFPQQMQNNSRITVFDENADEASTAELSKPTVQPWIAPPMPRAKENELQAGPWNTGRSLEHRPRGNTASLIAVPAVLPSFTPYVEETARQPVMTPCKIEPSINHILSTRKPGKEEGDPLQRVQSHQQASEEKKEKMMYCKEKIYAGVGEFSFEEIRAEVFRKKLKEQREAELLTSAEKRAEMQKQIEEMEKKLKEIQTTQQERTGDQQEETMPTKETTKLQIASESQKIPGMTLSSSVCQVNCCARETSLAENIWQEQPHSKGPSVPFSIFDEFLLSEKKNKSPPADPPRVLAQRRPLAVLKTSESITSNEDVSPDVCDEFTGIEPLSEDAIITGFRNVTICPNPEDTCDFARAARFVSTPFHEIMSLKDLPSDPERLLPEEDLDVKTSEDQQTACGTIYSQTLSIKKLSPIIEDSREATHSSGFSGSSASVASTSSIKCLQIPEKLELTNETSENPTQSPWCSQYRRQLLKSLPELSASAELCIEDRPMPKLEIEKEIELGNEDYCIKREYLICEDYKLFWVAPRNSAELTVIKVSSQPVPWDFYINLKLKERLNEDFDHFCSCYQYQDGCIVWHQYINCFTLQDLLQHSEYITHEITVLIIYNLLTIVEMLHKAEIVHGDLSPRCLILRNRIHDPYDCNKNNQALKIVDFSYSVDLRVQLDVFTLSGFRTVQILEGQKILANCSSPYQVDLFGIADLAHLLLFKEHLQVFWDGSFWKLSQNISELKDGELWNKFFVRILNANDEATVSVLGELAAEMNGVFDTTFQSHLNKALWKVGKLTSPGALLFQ
T1 sequence (P19784 whole entry): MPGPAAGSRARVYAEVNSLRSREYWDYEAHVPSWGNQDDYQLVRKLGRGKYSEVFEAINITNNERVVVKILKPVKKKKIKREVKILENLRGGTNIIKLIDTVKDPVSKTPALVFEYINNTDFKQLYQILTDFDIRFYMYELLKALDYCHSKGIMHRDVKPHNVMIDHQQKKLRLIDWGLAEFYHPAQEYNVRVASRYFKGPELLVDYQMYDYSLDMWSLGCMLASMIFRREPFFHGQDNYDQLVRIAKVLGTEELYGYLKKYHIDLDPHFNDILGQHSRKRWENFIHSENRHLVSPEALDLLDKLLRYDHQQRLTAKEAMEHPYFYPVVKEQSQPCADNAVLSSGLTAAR
T8 sequence (Q86Y07 whole entry): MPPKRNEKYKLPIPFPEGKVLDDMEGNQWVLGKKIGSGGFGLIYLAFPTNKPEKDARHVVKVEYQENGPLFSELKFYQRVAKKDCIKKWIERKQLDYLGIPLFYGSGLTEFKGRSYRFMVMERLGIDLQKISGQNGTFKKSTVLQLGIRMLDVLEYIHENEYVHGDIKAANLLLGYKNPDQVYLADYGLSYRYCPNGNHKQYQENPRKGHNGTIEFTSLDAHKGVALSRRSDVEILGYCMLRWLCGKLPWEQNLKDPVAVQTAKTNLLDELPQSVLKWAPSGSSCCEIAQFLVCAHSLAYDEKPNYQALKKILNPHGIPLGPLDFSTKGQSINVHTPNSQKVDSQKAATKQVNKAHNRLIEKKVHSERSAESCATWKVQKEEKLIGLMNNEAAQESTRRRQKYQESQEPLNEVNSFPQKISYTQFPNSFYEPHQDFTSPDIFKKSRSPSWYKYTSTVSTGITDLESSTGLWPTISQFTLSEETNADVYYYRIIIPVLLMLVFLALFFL

SMILES: CNC(=O)c1ccc2c(c1)C(=O)c1ccc(Nc3ccc(F)c(NC(=O)C4CC4)c3)cc1CC2 [Compound 2015]
- remaining activity at 0.2 µM (340 wild-type kinases [1]; 0.2 µM 2015, read-out: CK2alpha2 residual activity): 102%
- remaining activity at 1 µM (340 wild-type kinases [1]; 1 µM 2015, read-out: CK2alpha2 residual activity): 97.2%
- remaining activity at 0.2 µM (340 wild-type kinases [1]; CK2alpha2, 0.2 µM, read-out: residual activity): 102%
- remaining activity at 1 µM (340 wild-type kinases [1]; CK2alpha2, 1 µM, read-out: residual activity): 97.2%
- remaining activity at 0.2 µM (340 wild-type kinases [2]; 0.2 µM 2015, read-out: FRK residual activity): 126%
- remaining activity at 1 µM (340 wild-type kinases [2]; 1 µM 2015, read-out: FRK residual activity): 110%
- remaining activity at 0.2 µM (340 wild-type kinases [2]; FRK, 0.2 µM, read-out: residual activity): 126%
- remaining activity at 1 µM (340 wild-type kinases [2]; FRK, 1 µM, read-out: residual activity): 110%
- remaining activity at 0.2 µM (340 wild-type kinases [3]; 0.2 µM 2015, read-out: BTK residual activity): 116%
- remaining activity at 1 µM (340 wild-type kinases [3]; 1 µM 2015, read-out: BTK residual activity): 106%
- remaining activity at 0.2 µM (340 wild-type kinases [3]; BTK, 0.2 µM, read-out: residual activity): 116%
- remaining activity at 1 µM (340 wild-type kinases [3]; BTK, 1 µM, read-out: residual activity): 106%
- remaining activity at 0.2 µM (340 wild-type kinases [4]; 0.2 µM 2015, read-out: BUB1B residual activity): 94.1%
- remaining activity at 1 µM (340 wild-type kinases [4]; 1 µM 2015, read-out: BUB1B residual activity): 95.8%
- remaining activity at 0.2 µM (340 wild-type kinases [4]; BUB1B, 0.2 µM, read-out: residual activity): 94.1%
- remaining activity at 1 µM (340 wild-type kinases [4]; BUB1B, 1 µM, read-out: residual activity): 95.8%
- remaining activity at 0.2 µM (340 wild-type kinases [5]; 0.2 µM 2015, read-out: ULK2 residual activity): 105%
- remaining activity at 1 µM (340 wild-type kinases [5]; 1 µM 2015, read-out: ULK2 residual activity): 87.8%
- remaining activity at 0.2 µM (340 wild-type kinases [5]; ULK2, 0.2 µM, read-out: residual activity): 105%
- remaining activity at 1 µM (340 wild-type kinases [5]; ULK2, 1 µM, read-out: residual activity): 87.8%
- remaining activity at 0.2 µM (340 wild-type kinases [6]; 0.2 µM 2015, read-out: MAP3K9 residual activity): 114%
- remaining activity at 1 µM (340 wild-type kinases [6]; 1 µM 2015, read-out: MAP3K9 residual activity): 96.4%
- remaining activity at 0.2 µM (340 wild-type kinases [6]; MAP3K9, 0.2 µM, read-out: residual activity): 114%
- remaining activity at 1 µM (340 wild-type kinases [6]; MAP3K9, 1 µM, read-out: residual activity): 96.4%
- remaining activity at 0.2 µM (340 wild-type kinases [7]; 0.2 µM 2015, read-out: p38alpha residual activity): 5.35%
- remaining activity at 1 µM (340 wild-type kinases [7]; 1 µM 2015, read-out: p38alpha residual activity): 1.8%
- remaining activity at 0.2 µM (340 wild-type kinases [7]; p38alpha, 0.2 µM, read-out: residual activity): 5.35%
- remaining activity at 1 µM (340 wild-type kinases [7]; p38alpha, 1 µM, read-out: residual activity): 1.8%
- remaining activity at 0.2 µM (340 wild-type kinases [8]; 0.2 µM 2015, read-out: VRK2 residual activity): 115%
- remaining activity at 1 µM (340 wild-type kinases [8]; 1 µM 2015, read-out: VRK2 residual activity): 118%
- remaining activity at 0.2 µM (340 wild-type kinases [8]; VRK2, 0.2 µM, read-out: residual activity): 115%
- remaining activity at 1 µM (340 wild-type kinases [8]; VRK2, 1 µM, read-out: residual activity): 118%
- remaining activity at 0.2 µM (340 wild-type kinases [9]; 0.2 µM 2015, read-out: MARK3 residual activity): 117%
- remaining activity at 1 µM (340 wild-type kinases [9]; 1 µM 2015, read-out: MARK3 residual activity): 100%
- remaining activity at 0.2 µM (340 wild-type kinases [9]; MARK3, 0.2 µM, read-out: residual activity): 117%
- remaining activity at 1 µM (340 wild-type kinases [9]; MARK3, 1 µM, read-out: residual activity): 100%
- remaining activity at 0.2 µM (340 wild-type kinases [10]; 0.2 µM 2015, read-out: NEK4 residual activity): 105%
- remaining activity at 1 µM (340 wild-type kinases [10]; 1 µM 2015, read-out: NEK4 residual activity): 101%
- remaining activity at 0.2 µM (340 wild-type kinases [10]; NEK4, 0.2 µM, read-out: residual activity): 105%
- remaining activity at 1 µM (340 wild-type kinases [10]; NEK4, 1 µM, read-out: residual activity): 101%
- remaining activity at 0.2 µM (340 wild-type kinases [11]; 0.2 µM 2015, read-out: MAP3K7/MAP3K7IP1 residual activity): 96.8%
- remaining activity at 1 µM (340 wild-type kinases [11]; 1 µM 2015, read-out: MAP3K7/MAP3K7IP1 residual activity): 93.9%
- remaining activity at 1 µM (340 wild-type kinases [11]; MAP3K7/MAP3K7IP1, 1 µM, read-out: residual activity): 93.9%
